A melting point compilation (Tetko et al.; mined from patent text by program, amines drawn as free bases though some values may be those of a salt)

Row | melting point [°C] | SMILES
1 | 138 | Cc1nc2nccc(C(C)Oc3ccc(Cl)cc3)n2n1 (configuration not stated)
2 | 192 to 193 | C[C@@H]1Cc2cc(N3C[C@H](CN=[N+]=[N-])OC3=O)ccc2N1C(=O)OCc1ccccc1
3 | 154 to 157 | COc1ccc(C2=NN(C(C)CCC(=O)Nc3ccc(C4=NNC(=O)CC4C)cc3)C(=O)C3CC=CCC23)cc1OC (configuration not stated)
4 | 131 | CCN(CC)CCNC(=O)c1ccc(NC(=O)c2ccc3c(c2)OCO3)cc1OC
5 | 120 to 124 | COC(=O)C(=O)NCC(C#Cc1ccccc1)c1ccc(OC)c(OC2CCCC2)c1 (racemic)
6 | 138 | O=C(O)CC/C=C/CC(NC(=O)c1ccccc1)C(=O)O (configuration not stated)
7 | 45 | c1ccc(OCCSCc2nnc(-c3ccc(OCCCCN4CCCC4)cc3)o2)cc1
8 | 152 to 155 | CCOCc1nc2c(N)nc3ccccc3c2n1CCOCCNS(C)(=O)=O
9 | 82 to 83 | O=C1C(=O)c2ccc(Br)cc2C2=C1SCC1(CCN(CC(O)Cc3ccccc3)CC1)O2 (configuration not stated)
10 | 48 to 50 | CC(C)CNC(=O)/C=C/C=C/CCCCCCOCc1cccc(C(F)(F)F)c1
11 | 84 to 85 | FC(F)(F)c1ccc(-c2nocc2CCl)cc1
12 | 103 to 106 | COC1c2sccc2C(=O)c2ccccc2C1Br (configuration not stated)
13 | > 300 | O=c1[nH]c2cc(O)ccc2c2oc3ccccc3c12
14 | 144 to 145 | Cc1cc(OCc2cn(-c3ccc(C(F)(F)F)cn3)nc2C)ccc1CCC(=O)O
15 | 220 to 222 | CC(=C1SC(=O)NC1=O)c1ccc(OCCOc2c(-c3ccccc3F)n(C)c3ccccc3c2=O)c(Cl)c1
16 | 43 to 46 | Cc1cc(Oc2ccccc2)ccc1[N+](=O)[O-]
17 | 87 | OCCON=Cc1ccc2ccccc2c1
18 | 139 to 140 | O=C(O)CCc1cc(OCCCCc2cc(-c3ccc(C(F)(F)F)cc3)no2)nn1-c1ccccc1
19 | 194 to 195 | CC(C)(C)C(NC(=O)c1ccc(Cl)cc1)NC(=NC#N)Nc1cccnc1 (configuration not stated)
20 | 141 to 142 | Cc1cc(C(=O)CC(O)(c2cc(Cl)cc(Cl)c2)C(F)(F)F)ccc1Br (configuration not stated)
21 | 150 | COCC1CN(c2ccc3cc(OCc4ccccc4)ccc3c2)C(=O)O1 (configuration not stated)
22 | 87 to 90 | CNCCOc1ccc(C(=C(c2ccccc2)C(F)(F)F)c2ccc(OCOC)cc2)cc1
23 | 160 | COc1ccc(-c2cc(=O)c3c(OCC4=COC(C)(C)O4)cc(OCC4=COC(C)(C)O4)cc3o2)cc1O
24 | 130 to 132 | CC(C)Oc1cc(/C=C/C(=O)O)n(Cc2ncc(C(F)(F)F)cc2Cl)n1
25 | 37 to 38 | CCCCCCCCCCCCOc1cc(O)c(C(=O)c2ccccc2)c(OCCCCCCCCCCCC)c1
26 | > 220 | Brc1ccc(Nc2ncc(-c3ccccc3)s2)nc1
27 | 107 to 108 | Cn1c(=O)ccc2cc(COc3cccc(C4(C)CCOCC4)c3)ccc21
28 | 141 to 142 | Cc1ccc(C)n1-c1ccc2c(c1)ncn2-c1cccc(-n2ccnc2)c1

Row | melting point [°C] | SMILES
29 | 178 | CS(=O)(=O)N1CN(C(=O)c2c(F)cccc2F)C(=O)N(c2ccc(Cl)cc2)C1
30 | 208 to 209 | CC(C)(C)OC(=O)Nc1cc(Sc2ccc3c(C(=O)O)cccc3c2)ncn1
31 | 209 to 212 | CCCCc1nc2cccc(C(=O)O)c2n1Cc1ccc(-c2cncnc2-c2nnn[nH]2)cc1
32 | 190 to 193 | CCOCCOCCn1c(C=O)cc2c1CC(c1ccccc1Cl)C1C(=O)NC(=O)C21 (configuration not stated)
33 | 174 | CN(Cc1cccc(-c2ccc(O)cc2)c1)C(=O)OC(C)(C)C
34 | 120 to 123 | O=C(O)CCCCCCCCn1cc(-c2ccccc2)c(-c2ccccc2)nc1=O
35 | 106 to 109 | CC(C)c1ccc(C(=O)C(=O)c2ccccc2)c(C(C)C)c1OS(N)(=O)=O
36 | 164 to 165 | CC1(C)NC(=O)N(c2ccc(I)c(C(F)(F)F)c2)C1=O
37 | 188 to 191 | Nc1ccccc1C(=O)NN=Cc1c(O)ccc2ccccc12
38 | 97 to 99 | COC(=O)C(=O)c1ccc(OCCCc2ccc3ccccc3c2)cc1
39 | 153 to 156 | O=C(NCc1cccc([N+](=O)[O-])c1)Nc1ccccc1
40 | 233 to 240 | Cc1cc(C)n(-c2nc(Nc3cccc(C(F)(F)F)c3)c3ccccc3n2)n1
41 | 130 to 132 | c1ccc(C(c2ccccc2)N2CCN(CCCCCCNc3ccc4ncnn4n3)CC2)cc1
42 | 165 to 167 | O=C(COc1ccc2c(-c3ccccc3F)noc2c1Br)NO
43 | 183 to 186 | CCOc1ccc2nc(NC(=O)N(C)C)sc2c1
44 | 116 to 118 | CS(=O)(=O)N1CCC(C(=O)N(CCCN2CCC(Cc3ccccc3)CC2)c2ccccc2)CC1
45 | 178 to 179 | Cc1ccc(O)c(C(=O)OCC=Cc2ccccc2)c1
46 | 191 to 194 | COc1ccc(NC(=O)c2ccc(-c3ccncc3)s2)cc1N1CCN(C)CC1
47 | 194 to 196 | CC(=O)Oc1ccc(-n2c(-c3ccccc3)cc3c2CCc2ccccc2-3)cc1C(=O)O
48 | 136 to 138 | Cc1nc(NN)nnc1-c1ccccc1
49 | 163 to 166 | COc1ccc(C2=NN(C3CCN(c4ncccn4)CC3)C(=O)[C@@H]3CC=CC[C@H]23)cc1OC
50 | 138 | O=C1CC(c2ccccc2)c2cc(O)ccc2O1 (configuration not stated)
51 | 118 to 119 | OC(CCCc1ccccc1)c1ccc(OCc2ccc3ccccc3n2)cc1 (configuration not stated)
52 | 93 | COc1ccc(C(=O)C(NC(=O)CCCCCBr)c2ccc(OC)cc2)cc1 (configuration not stated)
53 | 79 | O[C@@H](CNCC1CCN(CCC(F)(F)F)CC1)COc1ccc(Br)c2[nH]c3ccccc3c12
54 | 95 to 98 | CC(C)c1ccc(N(Cc2ccc(N(C)C)cc2)C(=O)C2CCOc3ccc(F)cc32)cc1 (configuration not stated)
55 | 131 to 133 | CCC(C)(Oc1ccc(CC(=O)Nc2cc(C)cc(C)c2)cc1)C(=O)O (configuration not stated)

The next lines start with the compound.

Row | SMILES | melting point [°C]
56 | CC(C)SC(=O)CCS(=O)(=O)C(C)C | 45 to 47
57 | Nc1nc2c(ncn2CCC(COC(=O)n2ccnc2)COC(=O)n2ccnc2)c(=O)[nH]1 | > 300
58 | CC(C)N=c1[nH]c2ccc(Cl)cc2c2nc(-c3ccco3)nn12 | 140 to 141
59 | CCCCCCCCCCCC1CCC(O)C(=O)O1 (configuration not stated) | 95 to 96
60 | CC(=O)c1ccc(Cl)nc1 | 101 to 102
61 | CN1Sc2sccc2C=C1CO | 128 to 130
62 | CC(=O)Nc1ccc(C#Cc2ccc(OC3CN4CCC3CC4)nn2)cc1 (configuration not stated) | 170 to 175
63 | CC(C)c1cccc(C(C)C)c1NC(=O)CN1CCN(CCSc2nc3cccc(S(C)=O)c3o2)CC1 (configuration not stated) | 119 to 120
64 | CN1CCC(c2nc3ccccc3[nH]2)C1 (configuration not stated) | 189 to 193
65 | CS(=O)(=O)c1ccc(C(CC2CCCC2)C(=O)Nc2nccs2)cc1 (configuration not stated) | 61 to 63
66 | CCOC(=O)c1ncc2[nH]c3ccc(SC)cc3c2n1 | 265 to 266
67 | C=C(CCC)C(=O)c1cc2oc(C(=O)O)cc2c(C)c1C | 172
68 | CCN(CC)CCCCNc1ncc2c(n1)N(C1CC1)C(=O)N(c1c(F)c(OC)cc(OC)c1F)C2 | 139 to 141
69 | N#Cc1cc(Br)c(OC(=O)OCI)c(Br)c1 | 103 to 105
70 | Cc1nc2c(C#N)cnn2c2c1CCN2C(C)(C)C | 220 to 224
71 | CNc1c(Cl)cc(C(=O)NCC2CCN(CCCOC)CC2)c2nccn12 | 125
72 | N#Cc1ccc(N2C(=O)NC3(CCS(=O)CC3)C2=O)cc1C(F)(F)F (configuration not stated) | 260 to 277
73 | Cc1nccnc1OCC1COC(C)(C)O1 (configuration not stated) | 77 to 78
74 | CCOC(=O)C(NC(=O)CI)C(=O)OCC | 95 to 97
75 | CCNc1nc(C)c(-c2ccncc2)s1 | 129 to 131
76 | Cc1ccc(Sc2cc(C(C)(C)C)c(O)c(C(=O)O)c2C)cc1 | 163 to 164
77 | O=S1(=O)NCN(C2CC2)c2ccc(C(F)(F)F)cc21 | 155 to 157
78 | CC(C)NC(=S)N1CCc2c(ncn2C)C1 | 200
79 | CCCCCCCCCCCCOC(=O)c1cc([N+](=O)[O-])c(C(=O)O)cc1C(=O)O | 148

Row | SMILES | melting point [°C]
80 | CC(c1ccnnc1)C(O)(Cn1cncn1)c1ccc(Cl)cc1Cl (configuration not stated) | 174 to 177
81 | Cc1cc(C)cc(NCc2ccc3nc(NC4CCN(CCS(N)(=O)=O)CC4)n(Cc4nc(C)ccc4O)c3c2)c1 | 142
82 | CN(C)Cc1ccc(CSCCNc2[nH]ccc2[N+](=O)[O-])o1 | 67
83 | CCN1CCN(C2c3c(C)c(N4CCN(c5ccc(OC)cc5)CC4)c(C)c(C)c3OC2(C)C)CC1 (configuration not stated) | 98 to 100
84 | CCCCCC1(c2ccc(C)cc2)OCc2c(O)c(C)nc(Cl)c21 (configuration not stated) | 180
85 | CCOC(=O)C(C)c1ccc(NC(C)=O)cc1 (configuration not stated) | 94.5 to 95.5
86 | O=C(C1CCCCC1)N1CCN2C(=O)c3ccccc3C2C1=O (configuration not stated) | 167 to 172
87 | COC(=O)c1c([N+](=O)[O-])c(OC)c2c(=O)[nH]c(C)nc2c1OC | 225
88 | CN(C)n1c(=O)c2ccccc2n(C)c1=O | 154
89 | CC#Cc1cc(=O)n2nc(S(=O)(=O)CCCCCC)sc2n1 | 122 to 125
90 | Cn1c(=O)cc(CCCl)c2cc(Cl)ccc21 | 120 to 122
91 | CC1(C(=O)CC(=O)c2ccc(S(C)(=O)=O)c(Cl)c2Cl)CC1 | 143
92 | CCCCCC(CCn1ccnc1)SCc1ccc(Cl)cc1Cl (configuration not stated) | 124 to 126
93 | COc1ccc2sc3c(c2c1)OCCNC3=O | 264 to 265
94 | CCc1cccc(NC(=O)C(C#N)=C(C)N(C)C)c1 | 98 to 100
95 | Oc1cccc(-n2nnnc2S)c1 | 176 to 178
96 | CC1=CC(=C(C#N)C#N)C=C(C)S1(=O)=O | 176 to 177
97 | O=C(c1cc2ccnc(Cl)c2[nH]1)N1CCSCC1 | 62 to 72
98 | Cc1cc(CN2CCN(c3ccc(C(=O)NC4CC4)cc3Cl)CC2)cc2c1OC(C)C(=O)N2 (configuration not stated) | 252 to 255
99 | CSC1=NC2=NC3=C(CN2N1)C(Cc1ccccc1)CNC3=O (configuration not stated) | 232 to 234
100 | CCNC(=S)NS(=O)(=O)c1cc2c(cc1OC)OCCC2CNC(=O)c1cc(Cl)ccc1OC (configuration not stated) | 196 to 197
101 | O=c1oc2c(I)cc(I)cc2s1 | 155 to 157
102 | CC(C)c1cc(S(N)(=O)=O)c(C(C)C)cc1C(F)(F)F | 171 to 174
